Where a name gives a salt, the structure may show the parent alone.
Tests used:
Rattus norvegicus [1] = organism: Rattus norvegicus; assay: Binding affinity against 5-HT uptake site, using [3H]citalopram as radioligand in rat cortical membrane; format: functional
Rattus norvegicus [2] = organism: Rattus norvegicus; assay: Binding affinity against NE uptake site, using [3H]nisoxetine as radioligand in rat striatal membrane; format: functional, Striatum
Rattus norvegicus [3] = organism: Rattus norvegicus; assay: Binding affinity against DA uptake site, using [125I]beta-CIT as radioligand in rat striatal membrane; format: functional, Striatum

Row | Structure (SMILES) | Ki (Rattus norvegicus [1]) [nM] | Ki (Rattus norvegicus [2]) [nM] | Ki (Rattus norvegicus [3]) [nM]
1 | CNCC[C@H](Oc1ccc(C)cc1I)c1ccccc1 | 5.73 | 154 | 410
2 | CNCC[C@@H](Oc1cccc(I)c1)c1ccccc1 | 14.4 | 1.4 | 486
3 | CNCC[C@H](Oc1ccc(I)cc1C)c1ccccc1 | 13.9 | 1160 | 636
4 | CNCC[C@@H](Oc1ccc(I)cc1)c1ccccc1 | 1.27 | 3.21 | 
5 | CNCC[C@@H](Oc1ccccc1I)c1ccccc1 | 17.1 | 0.24 | 
6 | CNCC[C@H](Oc1cccc(I)c1)c1ccccc1 | 4 | 1.8 | 208
7 | CNCC[C@@H](Oc1ccc(I)cc1C)c1ccccc1 | 0.65 | 69 | 845
8 | CNCC[C@@H](Oc1ccc(C)cc1I)c1ccccc1 | 5.18 | 3.4 | 11300
9 | CNCC[C@@H](Oc1ccc(I)c(C)c1)c1ccccc1 | 0.69 | 128 | 220
10 | CNCC[C@H](Oc1ccc(I)c(C)c1)c1ccccc1 | 0.3 | 351 | 200
11 | CNCC[C@H](Oc1ccccc1I)c1ccccc1 | 13.1 | 9.35 | 
12 | CNCC[C@H](Oc1ccc(I)cc1)c1ccccc1 | 0.8 | 245 | 
13 | CNCC[C@@H](Oc1ccccc1C)c1ccccc1 [ATOMOXETINE HYDROCHLORIDE] | 25.1 |  | 
